Source: the NIST ThermoML archive (doi:10.1016/j.tca.2013.09.017)

What was measured:
[1] = 298.15 K, 101.33 kPa, Liquid; for speed of sound: Sing-around technique in a fixed-path interferometer; for mass density: Vibrating tube method
[2] = mn = molality of the nth substance listed, in mol/kg; conditions: 298.15 K, 101 kPa, Liquid; for speed of sound: Sing-around technique in a fixed-path interferometer; for mass density: Vibrating tube method

C1CCCCC1 [cyclohexane]
[1]
Conditions	mass density [kg/m3]	speed of sound [m/s]
–	773.82	1255

CN1CCCC1=O [N-methylpyrrolidone] + C1CCCCC1
[2]
Conditions	mass density [kg/m3]	speed of sound [m/s]
m1 = 0.0792	774.81	1256
m1 = 0.1648	776.26	1256.8
m1 = 0.2385	777.5	1257.6
m1 = 0.3142	778.77	1258.3
m1 = 0.3925	780.08	1258.7

CCC(=O)N(C)C [N,N-dimethylpropionamide] + CCCCCCC
[2]
Conditions	mass density [kg/m3]	speed of sound [m/s]
m1 = 0.0487	680.32	1132.3
m1 = 0.1515	681.98	1133.4
m1 = 0.2686	683.9	1135.1
m1 = 0.3627	685.47	1136.2
m1 = 0.4628	687.09	1137.5

CCCCCCC [heptane]
[1]
Conditions	mass density [kg/m3]	speed of sound [m/s]
–	679.51	1131.4

CCC(=O)N(C)C [N,N-dimethylpropionamide]
[1]
Conditions	mass density [kg/m3]	speed of sound [m/s]
–	921.16	1425.4

CCC(=O)N(C)C [N,N-dimethylpropionamide] + C1CCCCC1
[2]
Conditions	mass density [kg/m3]	speed of sound [m/s]
m1 = 0.05	773.91	1254.7
m1 = 0.1518	774.79	1254.7
m1 = 0.2497	775.68	1254.8
m1 = 0.355	776.64	1254.9
m1 = 0.4496	777.52	1255

CN1CCCC1=O [N-methylpyrrolidone] + CO
[2]
Conditions	mass density [kg/m3]	speed of sound [m/s]
m1 = 0.0786	788.33	1106.3
m1 = 0.1588	789.97	1109
m1 = 0.2275	791.35	1111.2
m1 = 0.3082	792.96	1114
m1 = 0.3854	794.5	1116.6

CO [methanol]
[1]
Conditions	mass density [kg/m3]	speed of sound [m/s]
–	786.66	1103.4

CN1CCCC1=O [N-methylpyrrolidone] + CCCCCCC
[2]
Conditions	mass density [kg/m3]	speed of sound [m/s]
m1 = 0.0859	681.45	1133.1
m1 = 0.1879	683.75	1135
m1 = 0.2695	685.56	1136.4
m1 = 0.3576	687.51	1137.7
m1 = 0.4488	689.49	1139.2

CCC(=O)N(C)C [N,N-dimethylpropionamide] + CO
[2]
Conditions	mass density [kg/m3]	speed of sound [m/s]
m1 = 0.0618	787.53	1105
m1 = 0.1442	788.62	1107
m1 = 0.2317	789.76	1109.6
m1 = 0.3264	790.9	1112
m1 = 0.4233	792.14	1114.7

CN1CCCC1=O [N-methylpyrrolidone] + O
[2]
Conditions	mass density [kg/m3]	speed of sound [m/s]
m1 = 0.0621	997.34	1500.7
m1 = 0.1225	997.63	1504.4
m1 = 0.1806	997.92	1507.8
m1 = 0.2399	998.21	1511.4
m1 = 0.3036	998.54	1515.1

CCC(=O)N(C)C [N,N-dimethylpropionamide] + CCCO
[2]
Conditions	mass density [kg/m3]	speed of sound [m/s]
m1 = 0.0515	800.16	1207.9
m1 = 0.1316	801.03	1209.6
m1 = 0.2061	801.84	1211.2
m1 = 0.2845	802.68	1212.9
m1 = 0.3632	803.51	1214.5

CN1CCCC1=O [N-methylpyrrolidone] + CCO
[2]
Conditions	mass density [kg/m3]	speed of sound [m/s]
m1 = 0.077	786.74	1146.8
m1 = 0.1554	788.32	1149.3
m1 = 0.2349	789.86	1151.9
m1 = 0.3089	791.28	1154
m1 = 0.388	792.78	1156.5

CCC(=O)N(C)C [N,N-dimethylpropionamide] + CCO
[2]
Conditions	mass density [kg/m3]	speed of sound [m/s]
m1 = 0.0587	785.99	1146.6
m1 = 0.1486	787.09	1148.1
m1 = 0.2471	788.4	1150.7
m1 = 0.3517	789.6	1153.2
m1 = 0.4456	790.79	1155.3

CCC(=O)N(C)C [N,N-dimethylpropionamide] + CCCCO
[2]
Conditions	mass density [kg/m3]	speed of sound [m/s]
m1 = 0.0494	806.25	1241.7
m1 = 0.1311	807.08	1243.2
m1 = 0.21	807.88	1244.6
m1 = 0.2899	808.68	1246.1
m1 = 0.3702	809.48	1247.5

CN1CCCC1=O [N-methylpyrrolidone]
[1]
Conditions	mass density [kg/m3]	speed of sound [m/s]
–	1028.01	1545.2

CCO [ethanol]
[1]
Conditions	mass density [kg/m3]	speed of sound [m/s]
–	785.22	1145.2

CN1CCCC1=O [N-methylpyrrolidone] + CCCO
[2]
Conditions	mass density [kg/m3]	speed of sound [m/s]
m1 = 0.0757	801.03	1209.1
m1 = 0.1611	802.58	1211.6
m1 = 0.2275	803.78	1213.4
m1 = 0.3064	805.2	1215.6
m1 = 0.381	806.51	1217.6

CCCO [propan-1-ol]
[1]
Conditions	mass density [kg/m3]	speed of sound [m/s]
–	799.58	1206.7

CCCCO [butan-1-ol]
[1]
Conditions	mass density [kg/m3]	speed of sound [m/s]
–	805.72	1240.5

CN1CCCC1=O [N-methylpyrrolidone] + CCCCO
[2]
Conditions	mass density [kg/m3]	speed of sound [m/s]
m1 = 0.0846	807.27	1243
m1 = 0.1506	808.43	1244.6
m1 = 0.23	809.82	1245.8
m1 = 0.2953	810.94	1247.7
m1 = 0.3712	812.24	1249.6

CCC(=O)N(C)C [N,N-dimethylpropionamide] + O
[2]
Conditions	mass density [kg/m3]	speed of sound [m/s]
m1 = 0.0588	996.85	1501.1
m1 = 0.1486	996.53	1508.1
m1 = 0.2471	996.2	1515.7
m1 = 0.3518	995.95	1522
m1 = 0.4457	995.72	1528.2
